Molecular target: Jacalin (Artocarpus integer, UniProt P18670)
Test: competition turbidimetry: free galactose blocks lectin aggregation by galactose cage Co4Gal ([…] against Co8Gal)
Assay type: binding

Chain of Jacalin (P18670 whole entry): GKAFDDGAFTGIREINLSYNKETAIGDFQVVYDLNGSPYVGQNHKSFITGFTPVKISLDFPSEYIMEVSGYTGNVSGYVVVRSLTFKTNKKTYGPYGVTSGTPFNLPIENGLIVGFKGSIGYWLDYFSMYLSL
Chain of Jacalin (P18671 whole entry partner): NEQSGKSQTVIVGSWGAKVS

IC50: 30 mM
Compound: OC[C@H]1OC(O)[C@H](O)[C@@H](O)[C@H]1O (stereo partly drawn) [D-galactose]

Reference: paper PMC10401570, “Programmable Monodisperse Glyco-Multivalency Using Self-Assembled Coordination Cages as Scaffolds” (ACS Applied Materials & Interfaces, 2023)
